# Data taken from ChEMBL document CHEMBL1145686, “Three new oleanane saponins from Zanha africana” (1997).
# System: Mus musculus
# Assay: Antiinflammatory activity against TPA-induced ear edema in mouse assessed per ear
# Type: functional
row,SMILES,ID50 [µg]
1,C[C@@H]1O[C@@H](O[C@H]2[C@H](OC(=O)[C@]34CCC(C)(C)C[C@H]3C3=CC[C@@H]5[C@@]6(C)C[C@H](O)[C@H](O[C@@H]7O[C@H](C(=O)O)[C@@H](O)[C@H](O)[C@H]7O)[C@@](C)(C(=O)O)[C@@H]6CC[C@@]5(C)[C@]3(C)C[C@H]4O)O[C@@H](C)[C@H](O)[C@H]2O)[C@H](O[C@@H]2OC[C@@H](O)[C@H](O)[C@H]2O)[C@H](O)[C@H]1O [ZANHASAPONIN B],20
2,C[C@@H]1O[C@@H](O[C@H]2[C@H](OC(=O)[C@]34CCC(C)(C)C[C@H]3C3=CC[C@@H]5[C@@]6(C)C[C@H](O)[C@H](O[C@@H]7O[C@H](C(=O)O)[C@@H](O)[C@H](O)[C@H]7O)[C@@](C)(C(=O)O)[C@@H]6CC[C@@]5(C)[C@]3(C)C[C@H]4O)O[C@@H](C)[C@H](O)[C@H]2O)[C@H](O[C@@H]2OC[C@@H](O)[C@H](O[C@@H]3OC[C@@H](O)[C@H](O)[C@H]3O)[C@H]2O)[C@H](O)[C@H]1O [ZANHASAPONIN C],79
3,C[C@@H]1O[C@@H](O[C@H]2[C@H](OC(=O)[C@]34CCC(C)(C)C[C@H]3C3=CC[C@@H]5[C@@]6(C)C[C@H](O)[C@H](O[C@@H]7O[C@H](C(=O)O)[C@@H](O)[C@H](O)[C@H]7O)[C@@](C)(C(=O)O)[C@@H]6CC[C@@]5(C)[C@]3(C)C[C@H]4O)O[C@@H](C)[C@H](O)[C@H]2O)[C@H](O)[C@H](O)[C@H]1O [ZANHASAPONIN A],14
